One data set concerns the target Y652A-hERG (Homo sapiens, UniProt Q12809, Y652A). The note with it: pH 7.4. The text has this: (§1) For hERG measurements, the oocytes were clamped at a holding potential of −100 mV and depolarized to +20 mV allowing activation and inactivation. […] Channel block was estimated from tail current inhibition.
For data set [1], the target named is wild type hERG (WT) channels (Homo sapiens, UniProt Q12809). The note with it: pH 7.4.
From the text: as §1

In the case of `O=C(CCCN1CCC(O)(c2ccc(Cl)cc2)CC1)c1ccc(F)cc1` [Haloperidol, haloperidol], at Y652A-hERG, the “Y652A-hERG nH (hill coefficient)” value worked out at 1 ± 0.04 and the “Y652A-hERG ∆IC50” value is given as 31.4. Further, the “WT nH (hill coefficient)” value in data set [1] amounted to 1.3 ± 0.1.

The values above are taken from PMC4828713, “New potential binding determinant for hERG channel inhibitors” (Scientific Reports, 2016).
